Values joined by “and” are separate entries in the source; they are usually repeats but may differ in a detail not shown here. Equal values may be shown once.
Columns and labels:
Toledo Cells = assay: FACS-based phagocytosis assay, macrophages cocultured with Toledo cells; type: cell-based, Human
Experimental: FACS-based phagocytosis assays were performed to evaluate the phagocytic abilities of macrophages.
Toledo Cells (a tumor cell line, as a target) were labelled with CellTrace™ Far Red and plated into 96-well plate at a density of 0.15×10^6 cells/well for 12 hours. The Macrophages were prepared as discussed above and then labelled with CellTrace Violet. Next, the macrophages were added into the plate as an effector at an effector:target (Toledo) ratio of 1:3, giving a final density of macrophages at 0.05×10^6 cells/well. Macrophages and tumor cells were cocultured for 2-6 h at 37° C. in the presence of the indicated treatments (small molecule therapeutic agents, CD47 antibody, CD20 antibody or combinations). The incubation time depending on the phagocytosis rate, expecting phagocytosis of 5-20% cells.
Then, cells were acquired and data were analyzed.

WSU-DLCL2 cells = assay: Anti-tumor efficacy in WSU-DLCL2 tumor xenograft model; type: in vivo, NOD/SCID mice; settings: 5 mg/kg each agent; for T/C (%) / TGI (%): day 43
Source text: To establish the xenograft model, human diffuse large B Cell lymphoma (WSU-DLCL2 cells) were subcutaneously (s.c.) injected into 6- to 7-week-old NOD/SCID mice (Shanghai Lingchang Biotechnology Co., Ltd, Shanghai, China) for tumor development. When tumor volume reaches a mean value of approximately 94 mm^3, 32 mice were divided into 4 groups of 8 equally and injected intravenously (i.v.) with PBS (control group), anti-CD47 antibody (i.e. T4J), rituximab, or anti-CD47 antibody T4J+ rituximab at a dose of 5 mg/kg, respectively (See, Table 5). The anti-tumor efficacy studies were performed using a twice per week dosing schedule (5 mg/kg) for 4 weeks.
The first day of antibody administration was designated as day 0. Mice were then monitored for tumor development and progression, and observation continued until day 43. Tumor volumes were measured twice a week in two dimensions (length and width) using a caliper, and the volumes were calculated using the following formula: Volume (V)=(L×W×W)/2, where L is tumor length (the longest tumor dimension) and W is tumor width (the longest tumor dimension perpendicular to L). The percentage of tumor growth inhibition (TGI) was calculated as follows: 100%×(1−[(Vtreated(^finalday)−Vtreated(^initial day))/(Vcontrol(^final day)−Vcontrol(^initial day)))]), where V is the tumor volume. Tumor body weight was measured twice per week after randomization and at day 43. Antibody treatment was then stopped after 43 days of study and mice were euthanized and necropsied for evidence of tumors.
Group comparisons were carried out using one-way analysis of variance (ANOVA). Data analysis were performed using IBM SPSS software version 18.0 (IBM, Armonk, N.Y., U.S.). Values of tumor volume and tumor body weight were expressed as mean±standard error of the mean (SEM). A P value of less than 0.05 (p<0.05) was considered statistically significant.

[1] = from tumor volume, i.v., BIW × 4 weeks

Rituximab: anti-CD20 antibody, heavy chain SEQ ID NO: 83, light chain SEQ ID NO: 84
macrophage phagocytosis (untreated = 1.00) (Toledo Cells; Cpd 0, T4J = 0, R = 0.01 ug/ml, listed as R): 1.36 and 1.31 and 1.57 and 1.38 | phagocytic ability of macrophages (Toledo Cells; agent itself or antibody combination): can promote macrophage phagocytosis | Tumor Body Weight (mg) on day 43 (Mean ± SEM) (WSU-DLCL2 cells; i.v., BIW × 4 weeks): 1673.7 ± 269.0 mg | Tumor Volume (mm^3) on day 43 (Mean ± SEM) (WSU-DLCL2 cells; i.v., BIW × 4 weeks): 1578.37 ± 241.53 mm^3 | T/C (%) (WSU-DLCL2 cells; from tumor body weight): 66% | TGI (%) (WSU-DLCL2 cells; from tumor body weight): 34% | T/C (%) (WSU-DLCL2 cells; [1]): 73% | TGI (%) (WSU-DLCL2 cells; [1]): 27%

— patent publication US20230174649A1, “PHARMACEUTICAL COMPOSITIONS CONTAINING ANTI-CD47 ANTIBODIES” (I-MAB BIOPHARMA US LIMITED, priority 2020, published 2023)
